Earlier results, collected in patent publication US20170332633A1, “DOUBLE SALT IONIC LIQUIDS OF HERBICIDES” (THE BOARD OF TRUSTEES OF THE UNIVERSITY OF ALABAMA, priority 2014, published 2017).

Test system: rat

SMILES | rat LD50 [mg/kg]
COc1c(Cl)ccc(Cl)c1C(=O)O [Dicamba, 3,6-dichloro-2-methoxy benzoic acid] | 1039
O=C(O)COc1ccc(Cl)cc1Cl [Example 2.4-D, 2,4-dichlorophenoxyacetic acid] | 639 to 764
